Reference: publication PMC2151634 (The Journal of General Physiology, 2007)

Biological target: T1, P2X2 receptor (Rattus norvegicus, UniProt P49653)
T1 sequence (P49653 1-472): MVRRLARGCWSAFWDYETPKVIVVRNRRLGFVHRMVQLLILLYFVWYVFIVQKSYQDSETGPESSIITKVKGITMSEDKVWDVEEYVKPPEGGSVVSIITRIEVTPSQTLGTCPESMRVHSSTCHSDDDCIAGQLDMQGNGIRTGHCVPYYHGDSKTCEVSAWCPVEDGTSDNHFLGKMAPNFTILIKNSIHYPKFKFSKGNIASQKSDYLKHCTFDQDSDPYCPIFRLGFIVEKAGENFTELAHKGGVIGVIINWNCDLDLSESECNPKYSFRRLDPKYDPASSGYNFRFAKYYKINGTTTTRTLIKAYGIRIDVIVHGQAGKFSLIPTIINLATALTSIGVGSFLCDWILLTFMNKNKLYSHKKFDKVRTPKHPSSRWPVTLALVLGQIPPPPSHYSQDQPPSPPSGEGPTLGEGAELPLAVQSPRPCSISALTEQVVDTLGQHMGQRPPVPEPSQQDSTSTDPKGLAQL
Assay: outside-out patch clamp, peak current, 2-s ATP pulses
Format: cell-based

EC50: 9.8 µM
SMILES: Nc1ncnc2c1ncn2[C@@H]1O[C@H](COP(=O)(O)OP(=O)(O)OP(=O)(O)O)[C@@H](O)[C@H]1O [ATP]
